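Five compound concentrations were applied to cells in 96-well plates for 48 hours; endpoints were derived by simple linear interpolation of the resulting dose-response curve. Here, GI50 denotes the concentration required for 50% inhibition of growth.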 The source made the active and inactive calls. Rule as the data show it: active = GI50 up to about 1.1 µM and inactive = higher.
Legend:
Experiment in all cases: NCI tumour cell line growth inhibition, 48 h
[1] = test system: A498
[2] = test system: COLO 205
[3] = test system: CAKI-1
[4] = test system: HCT-116
[5] = test system: HOP-62
[6] = test system: NCI/ADR-RES
[7] = test system: NCI-H23
[8] = test system: OVCAR-3
[9] = test system: U-251
[10] = test system: LOX IMVI
[11] = test system: SNB-75
[12] = test system: CCRF-CEM
[13] = test system: RXF 393
[14] = test system: A549
[15] = test system: MCF7
[16] = test system: OVCAR-8
[17] = test system: HL-60
[18] = test system: SR
[19] = test system: M14
[20] = test system: MDA-MB-435

SMILES | GI50 [1] | GI50 [2] | GI50 [3] | GI50 [4] | GI50 [5] | GI50 [6] | GI50 [7] | GI50 [8] | GI50 [9] | GI50 [10] | GI50 [11] | GI50 [12] | GI50 [13] | GI50 [14] | GI50 [15] | GI50 [16] | GI50 [17] | GI50 [18] | GI50 [19] | GI50 [20]
O=NN(CCF)C(=O)NC1CCSCC1 | > 100 µM (inactive) | > 100 µM (inactive) | > 100 µM (inactive) | > 100 µM (inactive) | 1 µM (active) | > 100 µM (inactive) | > 100 µM (inactive) | > 100 µM (inactive) | > 100 µM (inactive) | > 100 µM (inactive) | > 100 µM (inactive) | > 100 µM (inactive) | > 100 µM (inactive) | > 100 µM (inactive) | > 100 µM (inactive) | > 100 µM (inactive) | > 100 µM (inactive) |  |  | 
CC1CC2=Nc3ccccc3NC(c3ccccc3)C2=C(O)O1 (stereo not drawn) | > 100 µM (inactive) | > 100 µM (inactive) |  | > 100 µM (inactive) | > 100 µM (inactive) |  | > 100 µM (inactive) | > 100 µM (inactive) | > 100 µM (inactive) | > 100 µM (inactive) | > 100 µM (inactive) | > 100 µM (inactive) | > 100 µM (inactive) | > 100 µM (inactive) |  | > 100 µM (inactive) | > 100 µM (inactive) | 63.1 µM (inactive) | > 100 µM (inactive) | 
O=[N+]([O-])c1ccc(Nc2nc3ccccc3s2)cc1 | 30.4 µM (inactive) |  | > 100 µM (inactive) |  | 29.2 µM (inactive) | 34.9 µM (inactive) | 16 µM (inactive) | 18.7 µM (inactive) | 17.3 µM (inactive) | 14.9 µM (inactive) |  |  | 14.7 µM (inactive) | 47.6 µM (inactive) |  | 40.7 µM (inactive) |  | 10.7 µM (inactive) | 26.7 µM (inactive) | 37.9 µM (inactive)
COc1nc(O)c(N)c(NC2OC(CO)C(O)C(O)C2O)n1 (stereo not drawn) | > 100 µM (inactive) | > 100 µM (inactive) |  | > 100 µM (inactive) | > 100 µM (inactive) | > 100 µM (inactive) | > 100 µM (inactive) | > 100 µM (inactive) | > 100 µM (inactive) | > 100 µM (inactive) | > 100 µM (inactive) | > 57.8 µM (inactive) | > 100 µM (inactive) | > 100 µM (inactive) | > 100 µM (inactive) | > 100 µM (inactive) | > 82.8 µM (inactive) |  |  | 
CCC(C(C)N1CC(=O)NC(=O)C1)N1CC(=O)NC(=O)C1 (stereo not drawn) | > 100 µM (inactive) | 0.506 µM (active) | > 100 µM (inactive) | 23.4 µM (inactive) | 7.01 µM (inactive) | 44.8 µM (inactive) | 29 µM (inactive) | > 100 µM (inactive) | > 61.9 µM (inactive) | > 100 µM (inactive) | > 48.9 µM (inactive) | 4.93 µM (inactive) | > 100 µM (inactive) | 1.51 µM (inactive) | 4.08 µM (inactive) | > 100 µM (inactive) | 2.06 µM (inactive) |  |  | 
CCCCSCC(NC(=O)/C=C/c1c(C)[nH]c(=O)[nH]c1=O)C(=O)OC (stereo not drawn) | 79.6 µM (inactive) | 36.5 µM (inactive) | 32.3 µM (inactive) | 30.3 µM (inactive) | 70.5 µM (inactive) | 358 µM (inactive) | 90.8 µM (inactive) | 13.2 µM (inactive) | 16.6 µM (inactive) | 78.3 µM (inactive) | 55.5 µM (inactive) | 20 µM (inactive) | 56.5 µM (inactive) | 124 µM (inactive) | 15.6 µM (inactive) | 37.9 µM (inactive) | 76.6 µM (inactive) |  |  | 
Cc1ccccc1NC(=O)CC(=O)N1N=C(N2c3ccccc3Sc3ccccc32)CC1c1ccccc1 (stereo not drawn) | > 100 µM (inactive) | > 100 µM (inactive) | > 100 µM (inactive) | > 100 µM (inactive) | > 100 µM (inactive) |  | > 100 µM (inactive) | > 100 µM (inactive) | > 100 µM (inactive) | > 100 µM (inactive) | > 100 µM (inactive) |  |  | > 100 µM (inactive) |  | > 100 µM (inactive) |  | > 100 µM (inactive) | > 100 µM (inactive) | 
CC1CN=C(N(C(=O)Nc2ccc(Cl)c(Cl)c2)c2ccccc2)S1 (stereo not drawn) | > 100 µM (inactive) | 37.2 µM (inactive) | 77.6 µM (inactive) | 42.6 µM (inactive) | > 100 µM (inactive) | 34.8 µM (inactive) | 64.9 µM (inactive) | 68.1 µM (inactive) | 53.5 µM (inactive) | 28.7 µM (inactive) | 56.2 µM (inactive) | 31.9 µM (inactive) |  | 53.7 µM (inactive) | 28.2 µM (inactive) | 87.1 µM (inactive) | > 10 µM (inactive) |  | 35.3 µM (inactive) | 
